Like-named read-outs stand apart in the source and are kept apart here.

A short description of data set [1]: Log P by HPLC on reversed phase columns, method [a] (EEC directive 79/831 Annex V.A8). Particulars: reversed phase HPLC column. Type of data set: physicochemical. The essentials:
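Log P calibrated with C3–C16 straight-chain alkan-2-ones of known Log P, interpolating linearly between retention times. Method per EEC 79/831 Annex V.A8: reversed-phase LC-UV in the acidic range, water/0.1% formic acid and acetonitrile gradient from 10% to 95% acetonitrile.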

The subject of data set [2] is Colletotrichum lindemuthianum. The experiment in a line: Example B: in vitro cell test, spore germination and mycelium growth in liquid culture. The format is cell-based. Particulars: 144 h, 20 ppm of tested compound, 6 days incubation, read-out: efficacy (inhibition of fungal growth). How it is done: • Solvent: dimethyl sulfoxide Culture medium: 14.6 g anhydrous D-glucose (VWR), • 7.1 g mycological peptone (Oxoid), • 1.4 g granulated yeast extract (Merck), QSP 1 liter Inoculum: spore suspension The tested compounds were solubilized in dimethyl sulfoxide and the solution used to prepare the required range of concentrations. The final concentration of dimethyl sulfoxide used in the assay was ≤1%. A spore suspension of Colletotrichum lindemuthianum was prepared and diluted to the desired spore density. The compounds were evaluated for their ability to inhibit spore germination and mycelium growth in liquid culture assay. The compounds were added in the desired concentration to the culture medium with spores. After 6 days incubation, fungi-toxicity of compounds was determined by spectrometric measurement of mycelium growth. Inhibition of fungal growth was determined by comparing the absorbance values in wells containing the tested compounds with the absorbance in control wells without tested compounds.

In a further data set the test system is Alternaria brassicae. The experiment in a line: Example E: in vivo preventive test (cabbage). The following applies: 144 h, 500 ppm of tested compound, preventive spray, evaluated 6 days after inoculation, read-out: efficacy. Here is the method: Solvent: 5% by volume of dimethyl sulfoxide • 10% by volume of acetone Emulsifier: 1 μL of Tween® 80 per mg of active ingredient The tested compounds were made soluble and homogenized in a mixture of Dimethyl sulfoxide/Acetone/Tween® 80 and then diluted in water to the desired concentration. The young plants of cabbage were treated by spraying the tested compound prepared as described above. Control plants were treated only with an aqueous solution of Acetone/Dimethyl sulfoxide/Tween® 80. After 24 hours, the plants were contaminated by spraying the leaves with an aqueous suspension of Alternaria brassicae spores. The contaminated cabbage plants were incubated for 6 days at 20° C. and at 100% relative humidity. The test was evaluated 6 days after the inoculation. 0% means an efficacy which corresponds to that of the control plants while an efficacy of 100% means that no disease was observed.

The test system of another data set is Phakopsora pachyrhizi. The experiment in a line: Example F: in vivo preventive test (soybeans), DMSO/acetone/Tween 80. The following applies: 288 h, 500 ppm of tested compound, preventive spray, soybean, evaluated 12 days after inoculation, read-out: efficacy. How it is done:
Solvent: 5% by volume of dimethyl sulfoxide • 10% by volume of acetone
Emulsifier: 1 μL of Tween® 80 per mg of active ingredient
The tested compounds were made soluble and homogenized in a mixture of dimethyl sulfoxide/acetone/Tween® 80 and then diluted in water to the desired concentration.
The young plants of wheat were treated by spraying the tested compound prepared as described above. Control plants were treated only with an aqueous solution of acetone/dimethyl sulfoxide/Tween® 80.
After 24 hours, the plants were contaminated by spraying the leaves with an aqueous suspension of Phakospora pachyrhizi spores. The contaminated soybean plants were incubated for 24 hours at 24° C. and at 100% relative humidity and then for 11 days at 24° C. and at 70-80% relative humidity.
The test was evaluated 12 days after the inoculation. 0% means an efficacy which corresponds to that of the control plants while an efficacy of 100% means that no disease was observed.

The mark [3] stands for this setting: log P determined according to method [a] (HPLC on reversed phase columns), read-out: logP.
[4] abbreviates: method [a], HPLC on reversed phase columns, read-out: logP.
The mark [5] stands for this setting: Method A: LC-UV, acidic range, 0.1% formic acid in water and acetonitrile, read-out: Log P.

For orientation: inhibition of growth means how much of the control response was suppressed. As for `CC(C)C(Nc1ncc(-c2nnc(C(F)F)o2)cn1)c1ccccc1` (racemic) [I.139, 5-[5-(difluoromethyl)-1,3,4-oxadiazol-2-yl]-N-[(1RS)-2-methyl-1-phenylpropyl]pyrimidin-2-amine], in data set [1] (setting [3]), the chromatographic logP turned out to be 3.57. Besides, in data set [2], the inhibition of growth at 20 µg/mL is 90 to 100%.

As to `N#CC(Nc1ncc(-c2nnc(C(F)F)o2)cn1)c1ccc(F)cc1` (racemic) [I.141, (2RS)—({5-[5-(difluoromethyl)-1,3,4-oxadiazol-2-yl]pyrimidin-2-yl}amino)(4-fluorophenyl)acetonitrile], in data set [1] (setting [3]), the chromatographic logP stood at 2.65. For the same molecule, the inhibition of growth at 20 µg/mL in data set [2] lay within 70 to 79%.

As to `CSc1ccc(-c2nnc(C(F)F)o2)cc1` [I.002, 2-(difluoromethyl)-5-[4-(methylsulfanyl)phenyl]-1,3,4-oxadiazole], the pest or weed control at 500 µg/mL with Alternaria brassicae was in the range of 70 to 79%.

In the case of `FC(F)c1nnc(-c2ccc(Br)cc2)o1` [I.009, 2-(4-bromophenyl)-5-(difluoromethyl)-1,3,4-oxadiazole], the pest or weed control at 500 µg/mL in the data set on Phakopsora pachyrhizi lay in the range of 70 to 79%.

In the case of `FC(F)c1nnc(-c2ccc(-c3nnc(C(F)F)o3)cc2)o1` [I.019, 2,2′-(1,4-phenylene)bis[5-(difluoromethyl)-1,3,4-oxadiazole]], the pest or weed control at 500 µg/mL with Phakopsora pachyrhizi lay within 90 to 100%.

For `FC(F)c1nnc(-c2ccc(COc3ccc(Cl)cc3)cc2)o1` [I.024, 2-{4-[(4-chlorophenoxy)methyl]phenyl}-5-(difluoromethyl)-1,3,4-oxadiazole], the pest or weed control at 500 µg/mL in the data set on Phakopsora pachyrhizi was 90 to 100%.

On to `Fc1ccccc1C1(Nc2ccc(-c3nnc(C(F)F)o3)cc2)CC1` [I.025, 4-[5-(difluoromethyl)-1,3,4-oxadiazol-2-yl]-N-[1-(2-fluorophenyl)cyclopropyl]aniline], for which the inhibition of growth at 20 µg/mL in data set [2] was in the range of 80 to 89%.

`Nc1ncc(-c2nnc(C(F)F)o2)cn1` [I.059, 5-[5-(difluoromethyl)-1,3,4-oxadiazol-2-yl]pyrimidin-2-amine]: the pest or weed control at 500 µg/mL with Phakopsora pachyrhizi fell in the range of 90 to 100%.

`FC(F)c1nnc(-c2cnc(Cl)nc2)o1` [I.061, 2-chloro-5-[5-(difluoromethyl)-1,3,4-oxadiazol-2-yl]pyrimidine]: in data set [2], the inhibition of growth at 20 µg/mL fell in the range of 90 to 100%.

As for `C#CCNc1ncc(-c2nnc(C(F)F)o2)cn1` [I.063, 5-[5-(difluoromethyl)-1,3,4-oxadiazol-2-yl]-N-(prop-2-yn-1-yl)pyrimidin-2-amine], in data set [2], the inhibition of growth at 20 µg/mL lay within 90 to 100%.

Take `FC(F)c1nnc(-c2cnc(NCC3CC3)nc2)o1` [I.067, N-(cyclopropylmethyl)-5-[5-(difluoromethyl)-1,3,4-oxadiazol-2-yl]pyrimidin-2-amine]: the inhibition of growth at 20 µg/mL in data set [2] was in the range of 80 to 89%.

Turning to `FC(F)c1nnc(-c2cnc(CC3CCCCC3)nc2)o1` [I.083, 2-(cyclohexylmethyl)-5-[5-(difluoromethyl)-1,3,4-oxadiazol-2-yl]pyrimidine], the pest or weed control at 500 µg/mL in the data set with Phakopsora pachyrhizi was 90 to 100%.

As for `FC(F)c1nnc(-c2cnc(NCc3ccccc3)nc2)o1` [I.088, N-benzyl-5-[5-(difluoromethyl)-1,3,4-oxadiazol-2-yl]pyrimidin-2-amine], in the data set with Phakopsora pachyrhizi, the pest or weed control at 500 µg/mL fell in the range of 90 to 100%.

Consider `COc1ccc(-c2ncc(-c3nnc(C(F)F)o3)cn2)cc1` [I.089, 5-[5-(difluoromethyl)-1,3,4-oxadiazol-2-yl]-2-(4-methoxyphenyl)pyrimidine], for which the inhibition of growth at 20 µg/mL in data set [2] was in the range of 90 to 100%.

With `Fc1ccc(CNc2ncc(-c3nnc(C(F)F)o3)cn2)cc1` [I.112, 5-[5-(difluoromethyl)-1,3,4-oxadiazol-2-yl]-N-(4-fluorobenzyl)pyrimidin-2-amine], the chromatographic logP in data set [1] (setting [3]) was 2.64. For the same molecule, the inhibition of growth at 20 µg/mL in data set [2] was in the range of 70 to 79%.

On to `Fc1ccc(Cc2ncc(-c3nnc(C(F)F)o3)cn2)c(F)c1` [I.115, 2-(2,4-difluorobenzyl)-5-[5-(difluoromethyl)-1,3,4-oxadiazol-2-yl]pyrimidine], for which the chromatographic logP in data set [1] (setting [3]) worked out at 2.7. Also, in the data set on Phakopsora pachyrhizi, the pest or weed control at 500 µg/mL lay within 70 to 79%.

For `N#Cc1ccc(C2(Nc3ncc(-c4nnc(C(F)F)o4)cn3)CC2)cc1` [I.152, 4-[1-({5-[5-(difluoromethyl)-1,3,4-oxadiazol-2-yl]pyrimidin-2-yl}amino)cyclopropyl]benzonitrile], the chromatographic logP in data set [1] (setting [3]) was 2.33. For the same molecule, the inhibition of growth at 20 µg/mL in data set [2] was in the range of 90 to 100%.

As to `FC(F)c1nnc(-c2cnc(NC3(c4ccccc4)CCC3)nc2)s1` [I.159, 5-[5-(difluoromethyl)-1,3,4-thiadiazol-2-yl]-N-(1-phenylcyclobutyl)pyrimidin-2-amine], in data set [1] (setting [3]), the chromatographic logP came out at 3.54. For the same molecule, in data set [2], the inhibition of growth at 20 µg/mL lay within 90 to 100%.

On to `CON(Cc1ccc(Cl)cc1)c1ncc(-c2nnc(C(F)F)o2)cn1` [I.169, N-(4-chlorobenzyl)-N-{5-[5-(difluoromethyl)-1,3,4-oxadiazol-2-yl]pyrimidin-2-yl}-O-methylhydroxylamine], for which, in data set [1] (setting [3]), the chromatographic logP was 3.31. Also, the inhibition of growth at 20 µg/mL in data set [2] fell in the range of 80 to 89%.

With `FC(F)(F)c1nnc(-c2cnc(NC3(c4ccccc4)CCC3)nc2)s1` [I.173, N-(1-phenylcyclobutyl)-5-[5-(trifluoromethyl)-1,3,4-thiadiazol-2-yl]pyrimidin-2-amine], in data set [1] (setting [4]), the chromatographic logP was found to be 4.12. The inhibition of growth at 20 µg/mL in data set [2] lay in the range of 80 to 89%.

On to `FC(F)(Cl)c1nnc(-c2cnc(NC3(c4ccccc4)CCC3)nc2)o1` [I.176, 5-{5-[chloro(difluoro)methyl]-1,3,4-oxadiazol-2-yl}-N-(1-phenylcyclobutyl)pyrimidin-2-amine], for which the chromatographic logP in data set [1] (setting [4]) is 4.08. Also, the inhibition of growth at 20 µg/mL in data set [2] is 70 to 79%.

Turning to `FC(F)c1nnc(-c2cnc(NC3(c4ccc(Cl)cc4)CCCCC3)nc2)o1` [I.182, N-[1-(4-chlorophenyl)cyclohexyl]-5-[5-(difluoromethyl)-1,3,4-oxadiazol-2-yl]pyrimidin-2-amine], in data set [1] (setting [4]), the chromatographic logP is 4.4. In data set [2], the inhibition of growth at 20 µg/mL fell in the range of 70 to 79%.

For the molecule `FC(F)c1nnc(-c2cnc(NC3(c4ccccc4Br)CC3)nc2)o1` [I.183, N-[1-(2-bromophenyl)cyclopropyl]-5-[5-(difluoromethyl)-1,3,4-oxadiazol-2-yl]pyrimidin-2-amine], the chromatographic logP in data set [1] (setting [4]) is 3.49. Besides, the inhibition of growth at 20 µg/mL in data set [2] was 80 to 89%.

Regarding `FC(F)c1nnc(-c2cnc(NC3(c4ccc(C(F)(F)F)cc4)CCCC3)nc2)o1` [I.266, 5-[5-(difluoromethyl)-1,3,4-oxadiazol-2-yl]-N-{1-[4-(trifluoromethyl)phenyl]cyclopentyl}pyrimidin-2-amine], the chromatographic logP in data set [1] (setting [4]) is 4.16.

`O=C(N(c1ncc(-c2nnc(C(F)F)o2)cn1)C1(c2ccccc2F)CC1)C(F)(F)F` [I.267, N-{5-[5-(difluoromethyl)-1,3,4-oxadiazol-2-yl]pyrimidin-2-yl}-2,2,2-trifluoro-N-[1-(2-fluorophenyl)cyclopropyl]acetamide]: the chromatographic logP in data set [1] (setting [4]) worked out at 3.91.

As for `FC(F)c1nnc(-c2cnc(NC3(c4ccccc4Br)CCCCC3)nc2)o1` [I.268, N-[1-(2-bromophenyl)cyclohexyl]-5-[5-(difluoromethyl)-1,3,4-oxadiazol-2-yl]pyrimidin-2-amine], the chromatographic logP in data set [1] (setting [4]) came to 4.38.

Turning to `CCc1noc(-c2ccc(C(=O)NNC(=O)C(F)(F)F)cc2)n1` [IIa.14, 4-(3-ethyl-1,2,4-oxadiazol-5-yl)-N′-(trifluoroacetyl)benzohydrazide], the chromatographic logP in data set [1] (setting [5]) was 1.93.

Regarding `O=C(NNC(=O)C(F)F)c1cnc(NC2(c3ccccc3)CCC2)nc1` [N′-(difluoroacetyl)-2-[(1-phenylcyclobutyl)amino]pyrimidine-5-carbohydrazide], the chromatographic logP in data set [1] (setting [5]) came to 1.99.

As for `CCOC(=O)c1cnc(NC2(c3ccccc3)CCC2)nc1` [ethyl 2-[(1-phenylcyclobutyl)amino]pyrimidine-5-carboxylate], the chromatographic logP in data set [1] (setting [5]) turned out to be 3.53.

Regarding `CCc1noc(-c2ccc(C(=O)NNC(=O)OC(C)(C)C)cc2)n1` [tert-butyl 2-[4-(3-ethyl-1,2,4-oxadiazol-5-yl)benzoyl]hydrazinecarboxylate], the chromatographic logP in data set [1] (setting [5]) is 1.23.
